Where two headings read alike, the source gives them in different places.
Legend:
[1] = cited from earlier work; for metabolism and defluorination relative to the undeuterated compound: U.S. Patent 4,154,971, U.S. Patent 4,153,636
[2] = cited from earlier work
mice = details: cited from earlier work
[3] = Incubations with soda lime in static systems; format: physicochemical; details: for degradation products with soda lime: static system
rat liver microsomes = format: in vitro ADME, male Sprague-Dawley rats; details: for defluorination by rat liver microsomes, nmol F^- /mg protein/30 min ± S.E.: 1 µl anesthetic per incubation, mean and standard error of triplicate determinations; for percent decline from sevoflurane values (degree of inhibited metabolism): following correction for background (0.43)
Experimental: The metabolism of D2-sevoflurane is expected to liberate one fluoride ion for each molecule metabolized by cytochrome P450 since the metabolism of sevoflurane liberates fluoride and hexafluoroisopropanol. To determine the metabolism of D2-sevoflurane relative to sevoflurane and enflurane, these anesthetics were incubated with hepatic microsomes from untreated male Sprague-Dawley rats (200-230g), or rats treated with isoniazid (80mg/kg, i.p. for 5 days), or phenobarbital (0.2% in the drinking water for 4 days). Isoniazid induces the cytochrome P450 isozyme P450 2E1 which is thought to metabolize the volatile anesthetics, and phenobarbital induces several forms also shown to play a role in anesthetic metabolism in the rat.
Each incubation vial (6 ml plastic vial) contained 3 ml of 5 mg/ml microsomal protein in a 0.1 M sodium phosphate buffer, pH 7.4. An NADPH generating system was added to cytochrome P450 activity, and the NADPH generating system was omitted from control incubations. […] Reactions were stopped by placing the vials on ice. Fluoride was assayed in the microsomal mixtures using fluoride ion-specific electrodes (Fisher Scientific) and a 720A Orion pH/ISE meter. Following incubation microsomes were mixed with an equal volume of TISABII buffer for fluoride analysis. Fluoride in each sample was determined from standard curves constructed using fluoride standards (10^-7 to 10^-3 M NaF) prepared from a commercially available standard solution (10^-1 M NaF).

Male Sprague-Dawley rats = assay: Induction of anesthesia in exposure chamber at 3% anesthetic; format: in vivo; details: initial concentration 3% anesthetic in 100% oxygen, 3.8 L chamber
Experimental: (§1) The animals were exposed in a 3.8 L plastic exposure chamber with an atmosphere of 100% oxygen. Male Sprague-Dawley rats (200-220g, 4 per group) were placed in the chamber and the chamber was flushed with oxygen and sealed. Anesthetic was introduced into the chamber in liquid form via an injection port. Quantities were introduced to give initial concentrations of 3% anesthetic (enflurane, 464 µl; sevoflurane and D2-sevoflurane, 524 µl). The rats became anesthetized within 4-6 minutes after introduction of each anesthetic. Oxygen and carbon dioxide were monitored periodically during the exposure period with an Ohmeda 6000 multi-gas monitor.

[4] = Breakdown by soda lime in an anesthesia circuit (gas chromatography); format: physicochemical; details: for production of volatile degradation by-products: soda lime temperature maintained in the range of 4°C to 27°C
Experimental: An anesthesia circuit containing fresh soda lime (1.5 kg) was set up with an anesthesia machine (Foregger F 500). […] The gases were re-circulated at a total circuit flow rate of 1.5 liters per minute (a relatively low clinical total flow rate) in a closed system with a respirator. Carbon dioxide was added to the circuit at a constant rate of 200 ml per minute. This set up the conditions for "worst case" breakdown of sevoflurane by soda lime.
Experiments were conducted at exothermic temperature versus with the soda lime canister immersed in an ice bath. […] Products were continually detected for the remainder of the experiments (up to eight hours) by gas chromatography.

[5] = In vivo metabolism: plasma fluoride after 30 minute inhalation exposure; set-up: species or system Male Sprague-Dawley rats; details: 30 minute exposure, 3% anesthetic
Source text: Untreated rats or rats treated with isoniazid or phenobarbital were exposed to D2-sevoflurane, sevoflurane, or enflurane to determine the relative rates of fluoride production in vivo.
as §1
Following a 30 minute exposure period, the chamber was flushed with 100% oxygen for 5 minutes and the animals rapidly awakened. The rats were immediately removed and injected i.p. with 80 mg/kg secobarbital. While anesthetized 3 to 4 ml of blood were withdrawn by cardiac puncture within 15 minutes of termination of anesthetic exposure (within 10 minutes of removal from the chamber). Plasma was prepared and fluoride analyzed as described above.

[6] = cited from earlier work; remark: listed apart in the source
[7] = Animal Treatment: Phenobarbital

[2H]C(F)(Cl)C(F)(F)OC(F)F (stereo not drawn) [1,1,2-trifluoro-2-chloro-2-deuteroethyl-difluoromethyl ether]
metabolism and defluorination relative to the undeuterated compound [1]: slower metabolism and thus slower defluorination

[2H]C(F)(Br)C(F)(F)OC(F)F (stereo not drawn) [1,1,2-trifluroro-2-bromo-2-deuteroethyl difluoromethyl ether]
metabolism and defluorination relative to the undeuterated compound [1]: slower metabolism and thus slower defluorination

[2H]C(Cl)(Cl)C(F)(F)OC [1,1-difluoro-2,2-dichloro-2-deuteroethyl methyl ether]
metabolism and defluorination relative to the undeuterated compound [1]: more readily metabolized into inorganic fluoride than the undeuterated compound | metabolism and defluorination relative to the undeuterated compound ([1]; listed as 1,1 difluoro-2-2-dichloro-2-deuteroethyl methyl ether): increase inorganic fluoride release

[2H]C(Cl)(Cl)C(F)(F)OC(F)F [1,1-difluoro-2-deutero-2,2-dichloroethyl difluoromethyl ether]
metabolism and defluorination relative to the undeuterated compound [1]: slower metabolism and thus slower defluorination

[2H]C([2H])([2H])OC(F)(F)C(Cl)Cl [2,2-dichloro-1,1-difluoro-1-methoxy-D3-ethane]
metabolism and defluorination relative to the undeuterated compound [1]: decreased metabolism

FC(F)OC(F)(C(F)F)C(F)F [(CHF2)2CF-O-CHF2]
anesthetic properties ([2]; in vivo): weak anesthetic in which deep anesthesia is not obtained | electro-encephalographic and convulsant activity ([2]; in vivo): abnormal electro-encephalographic and convulsant activity is observed

COC(F)(C(F)(F)F)C(F)(F)F [CH3OCF(CF3)2]
non-anesthetic up to (concentration) ([2]; U.S. Patent 3,683,092): > 8 % by volume in oxygen

FC(F)OCC(F)(F)C(F)(F)F [CHF2OCH2CF2CF3]
anesthetic properties ([2]; in vivo): non-anesthetic up to its lethal concentration | convulsions (mice): produces convulsions

[2H]C([2H])(F)OC(C(F)(F)F)C(F)(F)F [D2-sevoflurane, fluoro-dideutero-methyl-1,1,1,3,3,3,-hexafluoro-2-propyl ether]
degradation with soda lime, compared with sevoflurane ([3]; similar experiments to those run with sevoflurane): essentially the same | defluorination by rat liver microsomes, nmol F^- /mg protein/30 min ± S.E. (rat liver microsomes; Animal Treatment: Isoniazid): 1.55 ± 0.39 nmol F^- /mg protein/30 min | defluorination by rat liver microsomes, nmol F^- /mg protein/30 min ± S.E. (rat liver microsomes; Animal Treatment: None): 0.62 ± 0.60 nmol F^- /mg protein/30 min | defluorination by rat liver microsomes, nmol F^- /mg protein/30 min ± S.E. (rat liver microsomes; [7]): 0.18 ± 0.03 nmol F^- /mg protein/30 min | percent decline from sevoflurane values (degree of inhibited metabolism) (rat liver microsomes; microsomes from isoniazid treated rats): 79% | defluorinated slower than sevoflurane (% less) (rat liver microsomes; microsomes from phenobarbital and isoniazid treated rats, over a wide range of anesthetic concentrations (figures 1 and 2)): 70-86% | percent decline from sevoflurane values (degree of inhibited metabolism) (rat liver microsomes; microsomes from phenobarbital treated rats): 84% | percent decline from sevoflurane values (degree of inhibited metabolism) (rat liver microsomes; microsomes from untreated rats): 68% | time until rats became anesthetized after introduction of anesthetic (Male Sprague-Dawley rats): 4 to 6 min | production of volatile degradation by-products [4]: virtually insignificant levels | plasma fluoride liberated, % less than sevoflurane ([5]; isoniazid treated rats): 61% | plasma fluoride, % less than enflurane anesthetized animals ([5]; isoniazid treated rats): 80% | plasma fluoride liberated, % less than sevoflurane ([5]; phenobarbital treated animals): 66% | plasma fluoride, % less than enflurane anesthetized animals ([5]; phenobarbital treated rats): 45% | plasma fluoride liberated, % less than sevoflurane ([5]; untreated rats): 34% | plasma fluoride, % less than enflurane anesthetized animals ([5]; untreated rats): 40%

[2H]C(Cl)(Br)C(F)(F)F (stereo not drawn) [Deuterated Halothane]
effect of deuteration on metabolism ([1]; Sipes et al., J. Pharmacol. Exp. Ther. 214: 716-720, 1980): inhibits its metabolism to trifluoroacetic acid, but not its metabolism to release fluoride

FCOC(C(F)(F)F)C(F)(F)F [Sevoflurane, fluoromethyl-1,1,1,3,3,3-hexafluoro-2-propyl ether]
lower flammability limit in oxygen [6]: about 11.8 volume percent | degradation products with soda lime ([3]; 22°C): some degradation products including "Compound A" were detected | degradation products with soda lime ([3]; 45°C): substantial degradation products, including "Compound A", were produced | defluorination by rat liver microsomes, nmol F^- /mg protein/30 min ± S.E. (rat liver microsomes; [7]): 1.18 ± 0.06 nmol F^- /mg protein/30 min | time until rats became anesthetized after introduction of anesthetic (Male Sprague-Dawley rats): 4 to 6 min | time after circuit start at which degradation products were detected ([4]; exothermic temperature, soda lime core 44°C to 47°C, initial concentration 2.7%, flow 1.5 liters per minute): about 1.5 hours | degradation products detected ([4]; soda lime canister in ice bath, core 22°C to 27°C, run up to eight hours): no degradation products were detected | production of volatile degradation by-products [4]: virtually insignificant levels

FC(F)OC(F)(F)C(F)Cl (stereo not drawn) [enflurane]
anesthetic concentration-dependent inhibition of metabolism (rat liver microsomes; microsomes from isoniazid treated rats (figure 1)): anesthetic concentration-dependent inhibition of metabolism | time until rats became anesthetized after introduction of anesthetic (Male Sprague-Dawley rats): 4 to 6 min

FC(F)C(F)(F)COC(F)(F)F [trifluoromethyl-2,2,3,3-tetrafluoropropyl ether]
concentration causing violent convulsions and death (as low as) (mice): .5%

— EP0682649B1, “DEUTERATED SEVOFLURANE AS AN INHALATIONAL ANESTHETIC” (UNIVERSITY OF IOWA RESEARCH FOUNDATION, priority 1993, dated 1994)
